Experimental data reported in ChEMBL document CHEMBL5696442, “Discovery of type II inhibitors of TGFβ-activated kinase 1 (TAK1) and mitogen-activated protein kinase kinase kinase kinase 2 (MAP4K2)” (J Med Chem, 2015).

Key:
[1] = molecular target: T1, Inhibitor of nuclear factor kappa-B kinase subunit beta (Homo sapiens) (UniProt O14920); test: Inhibition of IKK-beta (unknown origin) at 1 uM by Ambit Kinomescan binding assay relative to control; values are per cent of control
T1 sequence (whole entry): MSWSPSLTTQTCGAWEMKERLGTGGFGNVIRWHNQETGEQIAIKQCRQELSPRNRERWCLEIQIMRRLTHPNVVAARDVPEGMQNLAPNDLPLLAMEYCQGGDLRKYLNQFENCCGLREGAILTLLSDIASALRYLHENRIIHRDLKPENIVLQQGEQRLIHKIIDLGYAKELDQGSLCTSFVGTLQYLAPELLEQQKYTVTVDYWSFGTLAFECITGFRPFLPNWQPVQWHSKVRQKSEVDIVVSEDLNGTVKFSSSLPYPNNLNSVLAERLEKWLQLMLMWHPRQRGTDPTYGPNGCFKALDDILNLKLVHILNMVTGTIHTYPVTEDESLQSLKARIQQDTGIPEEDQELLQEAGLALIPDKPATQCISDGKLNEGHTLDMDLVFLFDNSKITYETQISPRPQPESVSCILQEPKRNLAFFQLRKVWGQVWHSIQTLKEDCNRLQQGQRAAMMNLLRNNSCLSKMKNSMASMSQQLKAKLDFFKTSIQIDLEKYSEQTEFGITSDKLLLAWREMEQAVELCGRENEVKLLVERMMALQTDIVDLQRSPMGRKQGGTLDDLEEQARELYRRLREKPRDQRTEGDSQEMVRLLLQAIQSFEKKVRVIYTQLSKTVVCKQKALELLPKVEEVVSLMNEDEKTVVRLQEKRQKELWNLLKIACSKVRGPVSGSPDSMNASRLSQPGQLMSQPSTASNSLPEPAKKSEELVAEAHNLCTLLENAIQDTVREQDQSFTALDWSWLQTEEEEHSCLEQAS

[2] = molecular target: T2, Serine/threonine-protein kinase LATS1 (Homo sapiens) (UniProt O95835); test: Inhibition of LATS1 Lys2 labeling site in human A-375 cells at 5 uM by KiNativ Profiling analysis relative to control; format: cell-based
T2 sequence (whole entry): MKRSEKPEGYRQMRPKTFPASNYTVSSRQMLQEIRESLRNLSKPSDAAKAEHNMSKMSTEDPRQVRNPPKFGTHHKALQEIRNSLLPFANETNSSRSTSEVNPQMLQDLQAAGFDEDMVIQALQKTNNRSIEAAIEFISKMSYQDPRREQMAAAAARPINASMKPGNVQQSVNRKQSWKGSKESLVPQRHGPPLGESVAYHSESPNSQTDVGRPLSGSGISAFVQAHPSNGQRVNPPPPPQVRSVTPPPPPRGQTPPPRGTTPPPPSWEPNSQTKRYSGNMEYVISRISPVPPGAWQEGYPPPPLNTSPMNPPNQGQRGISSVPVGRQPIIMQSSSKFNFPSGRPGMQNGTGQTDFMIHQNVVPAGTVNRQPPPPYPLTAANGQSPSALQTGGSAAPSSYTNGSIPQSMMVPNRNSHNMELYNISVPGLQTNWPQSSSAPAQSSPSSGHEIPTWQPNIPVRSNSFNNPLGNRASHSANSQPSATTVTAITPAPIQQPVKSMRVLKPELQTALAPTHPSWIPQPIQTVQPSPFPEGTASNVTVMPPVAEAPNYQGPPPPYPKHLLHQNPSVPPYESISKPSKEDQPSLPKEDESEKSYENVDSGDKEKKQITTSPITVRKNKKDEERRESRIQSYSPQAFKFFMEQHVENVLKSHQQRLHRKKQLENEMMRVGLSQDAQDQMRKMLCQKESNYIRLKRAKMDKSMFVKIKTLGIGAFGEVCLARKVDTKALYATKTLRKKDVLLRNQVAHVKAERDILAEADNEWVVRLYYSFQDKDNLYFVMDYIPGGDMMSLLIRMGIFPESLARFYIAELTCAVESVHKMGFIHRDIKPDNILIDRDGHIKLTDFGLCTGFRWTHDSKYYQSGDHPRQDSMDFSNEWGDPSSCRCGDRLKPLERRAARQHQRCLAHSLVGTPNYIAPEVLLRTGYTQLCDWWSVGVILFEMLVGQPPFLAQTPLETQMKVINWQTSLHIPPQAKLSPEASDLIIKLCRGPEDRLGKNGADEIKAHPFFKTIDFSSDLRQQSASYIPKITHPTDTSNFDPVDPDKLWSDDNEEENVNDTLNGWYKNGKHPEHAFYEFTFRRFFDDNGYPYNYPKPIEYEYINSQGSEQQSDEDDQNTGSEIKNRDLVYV

[3] = molecular target: T3, Phosphatidylinositol 5-phosphate 4-kinase type-2 alpha (Homo sapiens) (UniProt P48426); test: Inhibition of PIP5K2A C2 labeling site in human Huh-7 cells at 10 uM by KiNativ Profiling analysis relative to control; format: cell-based
T3 sequence (whole entry): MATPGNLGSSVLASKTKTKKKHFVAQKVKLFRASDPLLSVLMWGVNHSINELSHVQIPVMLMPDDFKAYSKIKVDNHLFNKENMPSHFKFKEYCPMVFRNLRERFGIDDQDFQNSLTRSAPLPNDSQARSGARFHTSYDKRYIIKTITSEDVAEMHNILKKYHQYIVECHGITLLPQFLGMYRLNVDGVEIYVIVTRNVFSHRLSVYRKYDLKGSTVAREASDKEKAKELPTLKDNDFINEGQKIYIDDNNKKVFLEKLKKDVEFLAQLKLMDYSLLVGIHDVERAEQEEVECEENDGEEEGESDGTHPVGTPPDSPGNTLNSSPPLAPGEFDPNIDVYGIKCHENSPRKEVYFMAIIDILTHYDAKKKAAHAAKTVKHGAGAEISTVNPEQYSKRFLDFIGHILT

[4] = molecular target: T4, Serine/threonine-protein kinase STK11 (Homo sapiens) (UniProt Q15831); test: Inhibition of LKB1 Lys2 labeling site in human Huh-7 cells at 1 uM by KiNativ Profiling analysis relative to control; format: cell-based
T4 sequence (whole entry): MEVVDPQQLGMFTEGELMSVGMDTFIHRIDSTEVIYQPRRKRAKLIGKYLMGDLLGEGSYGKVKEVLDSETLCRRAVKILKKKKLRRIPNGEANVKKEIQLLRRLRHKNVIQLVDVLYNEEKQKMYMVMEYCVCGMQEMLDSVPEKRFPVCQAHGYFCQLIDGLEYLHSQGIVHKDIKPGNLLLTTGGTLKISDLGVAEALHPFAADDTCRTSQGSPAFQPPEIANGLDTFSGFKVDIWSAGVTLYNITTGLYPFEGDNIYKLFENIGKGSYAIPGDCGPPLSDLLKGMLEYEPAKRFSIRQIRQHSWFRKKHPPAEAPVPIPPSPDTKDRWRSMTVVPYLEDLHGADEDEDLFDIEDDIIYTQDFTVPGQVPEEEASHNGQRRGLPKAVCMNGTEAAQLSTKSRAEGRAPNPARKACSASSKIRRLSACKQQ

Compound `CCN1CCN(Cc2ccc(NC(=O)c3ccc(C)c(/C=C/c4cnc5[nH]ccc5c4OC)c3)cc2C(F)(F)F)CC1` has a residual activity [1] of 5.7%.
`CCN1CCN(Cc2ccc(NC(=O)c3ccc(C)c(Oc4ccnc5[nH]ccc45)c3)cc2C(F)(F)F)CC1` showed an inhibition [2] of -6.4% and an inhibition [3] of 1.3%.
`CNc1cc(Oc2cc(C(=O)Nc3cc(N4CCN(C)CC4)cc(C(F)(F)F)c3)ccc2C)ncn1` was tested, and the inhibition [4] was 15.1%.
